Laboratory results as given in patent US10919852B2, “Immunomodulator compounds” (CHEMOCENTRYX, INC., priority 2017, dated 2021).

target: human PD-L1 / Human PD-1 (Homo sapiens (Human), UniProt Q9NZQ7); assay: Enzyme-Linked Immunosorbent Assay (ELISA), PD-1/PD-L1 binding; conditions: plate-coated human PD-L1, biotinylated human PD-1
Procedure, shortened: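 Compound dilutions (1:5 series) competed with 0.3 μg/mL biotin-labelled human PD-1 for PD-L1 immobilised at […], for 1 h at 37 °C. Read-out was A450 after streptavidin-HRP and a 20 min TMB reaction, stopped with 2 N H2SO4.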

human PD-L1 / Human PD-1, sequence (Q9NZQ7 19-239): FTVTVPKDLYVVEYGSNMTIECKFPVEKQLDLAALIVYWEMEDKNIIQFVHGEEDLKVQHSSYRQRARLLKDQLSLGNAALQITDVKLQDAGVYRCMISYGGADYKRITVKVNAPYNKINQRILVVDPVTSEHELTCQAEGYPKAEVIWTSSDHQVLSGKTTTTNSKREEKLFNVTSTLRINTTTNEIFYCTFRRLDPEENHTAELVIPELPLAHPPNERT

SMILES | IC50 [nM]
Cc1c(OCCCN2CC[C@H](F)C2)cccc1-c1cccc2c1CC[C@@H]2Oc1cc(OCc2cncc(C#N)c2)c(CN[C@@H]2CCCC[C@@H]2O)cc1Cl | < 5
Cc1c(OCCCN2CCC(O)CC2)cccc1-c1cccc2c1C[C@@H](F)[C@@H]2Oc1cc(OCc2cncc(C#N)c2)c(CN[C@@H](CO)C(=O)O)cc1Cl | < 5
CN1CCC(COc2cccc(-c3cccc4c3CC[C@@H]4Oc3cc(OCc4cncc(C#N)c4)c(CNC[C@@H]4CCC(=O)N4)cc3Cl)c2Cl)C1 (some centres unmarked) | < 5
CC(C)(O)[C@H](NCc1cc(Cl)c(O[C@H]2CCc3c(-c4cccc(OCCCN5CCC(F)CC5)c4Cl)cccc32)cc1OCc1cncc(C#N)c1)C(=O)O | < 5
CCOc1cc(O[C@H]2CCc3c(-c4cccc(OCCCN5CCC5(C)C)c4C)cccc32)c(Cl)cc1CN1CC[C@@H](C(=O)OC)C1 | 5 to 500
Cc1c(OCCCN2CCC(O)CC2)cccc1-c1cccc2c1CC[C@@H]2Oc1cc(OCc2cncc(C#N)c2)c(CN[C@H](C(=O)NS(C)(=O)=O)[C@@H](C)O)cc1Cl | < 5
Cc1c(OCCCN2CC(F)C2)cccc1-c1cccc2c1CC[C@@H]2Oc1cc(OCc2cncc(C#N)c2)c(CNCC2CCC(=O)N2)cc1Cl (some centres unmarked) | < 5
N#Cc1cncc(COc2cc(O[C@H]3CCc4c(-c5cccc(OCCCN6CCCCC6)c5Cl)cccc43)c(Cl)cc2CN[C@@H]2CCCC[C@@H]2O)c1 | < 5
CC(CO)(NCc1cc(Cl)c(O[C@H]2CCc3c(-c4cccc(OCCCN5CCOCC5)c4Cl)cccc32)cc1OCc1cncc(C#N)c1)C(=O)O (some centres unmarked) | < 5
Cc1c(OCCCN2CCC(O)CC2)cccc1-c1cccc2c1CCC2Oc1cc(OCc2cncc(C#N)c2)c(CN[C@H](C(=O)O)[C@@H](C)O)cc1Cl (some centres unmarked) | < 5
C[C@@H](O)[C@H](NCc1cc(Cl)c(O[C@H]2CCc3c(-c4cccc(OCCCN5CCC(F)CC5)c4Cl)cccc32)cc1OCc1cncc(C#N)c1)C(=O)NS(C)(=O)=O | < 5
Cc1c(OCCCN2CC(C)(O)C2)cccc1-c1cccc2c1CC[C@@H]2Oc1cc(OCc2cncc(C#N)c2)c(CNCC2CCC(=O)N2)cc1Cl (some centres unmarked) | < 5
C[C@@](CO)(NCc1cc(Cl)c(O[C@@H]2c3cccc(-c4cccc(OCCCN5CC(F)C5)c4Cl)c3C[C@@H]2F)cc1OCc1cncc(C#N)c1)C(=O)O | < 5
N#Cc1cc(C#N)cc(COc2cc(O[C@@H]3c4cccc(-c5cccc(OCCCN6CC(O)C6)c5Cl)c4C[C@@H]3F)c(Cl)cc2CNC[C@@H]2CCC(=O)N2)c1 | 5 to 500
N#Cc1cncc(COc2cc(O[C@H]3CCc4c(-c5cccc(OCCCN6CC(O)C6)c5C(F)(F)F)cccc43)c(Cl)cc2CNCC2CCC(=O)N2)c1 (some centres unmarked) | 5 to 500
CC(C)(O)CNCc1cc(Cl)c(O[C@H]2CCc3c(-c4cccc(OCCCN5CC(O)C5)c4Cl)cccc32)cc1OCc1cncc(C#N)c1 | < 5
Cc1c(OCCCN2CCC(F)CC2)cccc1-c1cccc2c1CC[C@@H]2Oc1cc(OCc2cc(C#N)cc(C#N)c2)c(CN[C@@H]2CCC[C@H]2O)cc1Cl | < 5
CC(C)OC(=O)[C@](C)(CO)NCc1cc(Cl)c(O[C@H]2CCc3c(-c4cccc(OCCCN5CC(O)C5)c4Cl)cccc32)cc1OCc1cncc(C#N)c1 | < 5
Cc1c(OCCCN2CCC(F)CC2)cccc1-c1cccc2c1CC[C@@H]2Oc1cc(OCc2cc(C#N)cc(C#N)c2)c(CN[C@@H]2CCC(=O)NC2)cc1Cl | < 5
CCOc1cc(O[C@H]2CCc3c(-c4cccc(OCCCN5CCC5(C)C)c4C)cccc32)c(Cl)cc1CN(C)CCc1nnn[nH]1 | 5 to 500
Cc1c(OCCCN2CCC(F)CC2)cccc1-c1cccc2c1CC[C@@H]2Oc1cc(OCc2cc(C#N)cc(C#N)c2)c(CN[C@@H]2CCC[C@@H]2O)cc1Cl | < 5
CC1(F)CCN(CCCOc2cccc(-c3cccc4c3CC[C@@H]4Oc3cc(OCc4cncc(C#N)c4)c(CN4CCC5(C4)NC(=O)NC5=O)cc3Cl)c2Cl)CC1 (some centres unmarked) | 5 to 500
Cc1c(OCCCN2CCC(C)(F)CC2)cccc1-c1cccc2c1CC[C@@H]2Oc1cc(OCc2cncc(C#N)c2)c(CNC[C@H]2CCC(=O)N2)cc1Cl | 5 to 500
N#Cc1cncc(COc2cc(O[C@H]3CCc4c(-c5cccc(OCCCN6CCC(F)CC6)c5Cl)cccc43)c(Cl)cc2CN[C@@H]2CCOC[C@@H]2F)c1 | 5 to 500
N#Cc1cncc(COc2cc(O[C@H]3CCc4c(-c5cccc(OCCCN6CCC(O)CC6)c5Cl)cccc43)c(Cl)cc2CNC[C@@H]2CCC(=O)N2)c1 | < 5
Cc1c(OCCCN2CCC(O)CC2)cccc1-c1cccc2c1C[C@H](F)[C@@H]2Oc1cc(OCc2cncc(C#N)c2)c(CN[C@@](C)(CO)C(=O)O)cc1Cl | < 5
Cc1c(OCCCN2CCCCC2)cccc1-c1cccc2c1CC[C@@H]2Oc1cc(OCc2cncc(C#N)c2)c(CNC[C@@H]2CCC(=O)N2)cc1Cl | < 5
CCOc1cc(O[C@@H]2c3cccc(-c4cccc(OCCCN5CCC(C)(F)CC5)c4C)c3C[C@@H]2F)c(Cl)cc1CNC[C@@H]1CCC(=O)N1 | 5 to 500
Cc1c(OCCCN2CCC(C)(F)CC2)cccc1-c1cccc2c1CC[C@@H]2Oc1cc(OCc2cncc(C#N)c2)c(CN[C@@H]2CCC(=O)NC2)cc1Cl | < 5
CC1(F)CCN(CCCOc2cccc(-c3cccc4c3CC[C@@H]4Oc3cc(OCc4cncc(C#N)c4)c(CNC[C@H]4CCC(=O)N4)cc3Cl)c2Cl)CC1 | 5 to 500

Other lines, results leading:

IC50 [nM] | SMILES
5 to 500 | Cc1c(OCCCN2CCC(F)CC2)cccc1-c1cccc2c1CC[C@@H]2Oc1cc(OCc2cncc(C#N)c2)c(CN2CC(S(N)(=O)=O)C2)cc1Cl
< 5 | N#Cc1cc(C#N)cc(COc2cc(O[C@@H]3c4cccc(-c5cccc(OCCCN6CC(O)C6)c5Cl)c4C[C@@H]3F)c(Cl)cc2CNC[C@H]2CCC(=O)N2)c1
5 to 500 | N#Cc1cncc(COc2cc(O[C@H]3CCc4c(-c5cccc(OCCCN6CC(F)(F)C6)c5Cl)cccc43)c(Cl)cc2CN[C@@H]2CCCC[C@@H]2O)c1
< 5 | CCOc1cc(O[C@H]2CCc3c(-c4cccc(OCCCN5CC[C@@H](O)C5)c4C)cccc32)c(Cl)cc1CNC(CO)CO
< 5 | C[C@@H](O)[C@H](NCc1cc(Cl)c(O[C@H]2CCc3c(-c4cccc(OCCCN5CCC(C)(F)CC5)c4Cl)cccc32)cc1OCc1cncc(C#N)c1)C(=O)NS(C)(=O)=O
< 5 | CCOc1cc(O[C@H]2CCc3c(-c4cccc(OCCCN5CCC(O)CC5)c4C)cccc32)c(Cl)cc1CN[C@H](C(=O)O)[C@@H](C)O
< 5 | Cc1c(OCCCN2CCC(F)CC2)cccc1-c1cccc2c1CC[C@@H]2Oc1cc(OCc2cc(C#N)cc(C#N)c2)c(CNC2CCNC(=O)C2)cc1Cl (some centres unmarked)
< 5 | N#Cc1cncc(COc2cc(O[C@H]3CCc4c(-c5cccc(OCCCN6CCC6)c5Cl)cccc43)c(Cl)cc2CNC[C@@H]2CCC(=O)N2)c1
5 to 500 | CC1(F)CCN(Cc2cc(Cl)c(O[C@H]3CCc4c(-c5cccc(OCCCN6CCC(F)CC6)c5Cl)cccc43)cc2OCc2cncc(C#N)c2)CC1
< 5 | CC(CO)(NCc1cc(Cl)c(O[C@H]2CCc3c(-c4cccc(OCCCN5CC6(CC(F)C6)C5)c4Cl)cccc32)cc1OCc1cncc(C#N)c1)C(=O)O (some centres unmarked)
5 to 500 | CCOc1cc(O[C@H]2CCc3c(-c4cccc(OCCCN5CCC[C@H]5C(C)C)c4C)cccc32)c(Cl)cc1CNC[C@@H]1CCC(=O)N1
5 to 500 | CN1CCC(COc2cccc(-c3cccc4c3CC[C@@H]4Oc3cc(OCc4cncc(C#N)c4)c(CN[C@H]4CCC(=O)NC4)cc3Cl)c2Cl)C1=O (some centres unmarked)
< 5 | C[C@@](CO)(NCc1cc(Cl)c(O[C@H]2CCc3c(-c4cccc(OCCCN5CCC(O)CC5)c4Cl)cccc32)cc1OCc1cncc(C#N)c1)C(=O)O
< 5 | N#Cc1cncc(COc2cc(O[C@H]3CCc4c(-c5cccc(OCCCN6CCC(O)CC6)c5Cl)cccc43)c(Cl)cc2CNC(CO)CO)c1
